Read-outs that look alike come from different tables or passages of the source. Numbered stars: 1 amine (or outer) side, 2 acyl side, 3 side chain; on linkers, the order of the positions; unused ones are H or OH. Bridge positions count the residues as written; N and C are the ends. Square brackets hold non-standard residues; d marks the D form. Peptide text beside a SMILES is read from it. CO = O=C([*:1])[*:2]; Nlys = NCCCCNCC(=O)O
What was measured:
[1] = 48 h
Experimental: Eight-week-old C57Bl/6 mice were obtained from Envigo animal breeding center in Israel. All experiments were approved by the Institutional Animal Care and Use Committee, and performed according to OECD guidelines for chemical testing. One group of five mice (7683–87) received visabron c (4–4) by iv injection in a volume of 0.2 mL/mouse at a dose of 10 mg/mice (about 500 mg/kg), and another group of five mice (7688–92) received per-os visabron c (4–4) at a dose of 10 mg/mice, dissolved in a nanoemulsifying drug delivery system,[48] in a bolus of 0.4 mL/mouse. After 48 h of exposure, the animals were sacrificed and the organs were harvested for the detection of possible toxicological lesions in the framework of a safety assessment. Then the organs were fixed in 4% formaldehyde, trimmed in a standard position per organ, and transferred to embedding cassettes. Paraffin blocks were sectioned at approximately 3–5 μm thickness. The sections were applied on a glass slide and stained with hematoxylin and eosin (H&E). Pictures were taken on a microscope (Olympus BX60) at magnifications of X4 and X10 using the microscope’s camera (Olympus DP73). An experienced pathologist (Dr. Loeb Emanuel) examined the slides. Microscopically findings were classified with standard pathological nomenclature and the severity of the findings was graded on a scale of minimal, mild, or severe. Grades of severity for microscopic findings were subjective; minimal was the least extent discernible and severe was the greatest extent possible.
Table S11. Histological pathological grades of organs slides obtained from mice treated for 48 h with 500 mg/kg Visabron c(4-4)*
Number** Heart Lung Kidney Intestine Large Stomach Spleen Liver Brain […]
*Grade 0: no signs of pathological changes; Grade 1: mild pathological changes; Grade 2: moderate pathological changes; Grade 3: severe pathological changes.

[2] = test system: panel of 20 tyrosine protein kinases of immune cells; format: biochemical; conditions: concentration a hundred-fold higher than the IC50 for inhibition of α4β1 integrin (0.1 mM)
Experimental: Kinase activity was measured using the PhosphoSenstechnology (AssayQuant Technologies Inc., Marlborough, MA) as detailed in the Supporting Information. […]
Visabron c (4-4) safety by in vitro evaluation using PhosphoSens - CSox based kinase assays:
A powerful method was used to measure the activity of recombinant protein kinases using a homogeneous and continuous (kinetic) format, where the level of chelation-enhanced fluorescence (CHEF) that is directly proportional to the amount of phosphorylated, real-time sensors consisting of sulfonamido-oxine (Sox) chromophore, linked to a peptide or protein substrates of selective kinases 6. […]
Kinase activity measurements: Kinase activity was measured continuously using the PhosphoSens® technology (AssayQuant Technologies Inc., Marlborough, MA) according to the manufacturers’ recommendations. This one-step homogeneous assay format uses chelation -enhanced fluorescence via optimized substrate sensors containing the unnatural fluorogenic amino -acid Sox. […]
Final reaction conditions : Protein kinase activity was determined in 54 mM HEPES, pH 7.5, 1 mM ATP, 1.2 mM DTT, 0.012% Brij-35, 0.52 mM EGTA, 10 mM MgCl2, 1% glycerol, 0.2mg/ml BSA, and 15 μM Sox -based sensor. […]

[3] = 500 mg/kg i.v., all five mice 7683-7687
[4] = 500 mg/kg per os, all five mice 7688-7692

CSCC[C@@H]1NC(=O)[C@H]([C@@H](C)O)NC(=O)CN(C(=O)[C@@H](N)CCCCN)CCCCNC(=O)NCCCCN(CC(=O)N[C@@H](CC(C)C)C(N)=O)C(=O)[C@H](CC(=O)O)NC(=O)[C@H](CC(C)C)NC1=O [visabron c (4–4)] (H-K[Nlys]TMLD[Nlys]L-NH2; linker 2-7 via CO)
Histological pathological grade, Brain [1, 3]: 0 | Histological pathological grade, Heart [1, 3]: 0 | Histological pathological grade, Kidney [1, 3]: 0 | Histological pathological grade, Liver [1, 3]: 0 | Histological pathological grade, Lung [1, 3]: 0 | Histological pathological grade, Small Intestine [1, 3]: 0 | Histological pathological grade, Spleen [1, 3]: 0 | Histological pathological grade, Stomach [1, 3]: 0 | Histological pathological grade, Large Intestine ([1]; 500 mg/kg i.v., mouse 7683): 0 | Histological pathological grade, Large Intestine ([1]; 500 mg/kg i.v., mouse 7684, finding considered accidental, most probably not related to the tested compound): 3 | Histological pathological grade, Large Intestine ([1]; 500 mg/kg i.v., mouse 7685, finding considered accidental, most probably not related to the tested compound): 3 | Histological pathological grade, Large Intestine ([1]; 500 mg/kg i.v., mouse 7686): 0 | Histological pathological grade, Large Intestine ([1]; 500 mg/kg i.v., mouse 7687): 0 | Histological pathological grade, Brain [1, 4]: 0 | Histological pathological grade, Heart [1, 4]: 0 | Histological pathological grade, Kidney [1, 4]: 0 | Histological pathological grade, Liver [1, 4]: 0 | Histological pathological grade, Lung [1, 4]: 0 | Histological pathological grade, Small Intestine [1, 4]: 0 | Histological pathological grade, Spleen [1, 4]: 0 | Histological pathological grade, Stomach [1, 4]: 0 | Histological pathological grade, Large Intestine ([1]; 500 mg/kg per os, mouse 7688): 0 | Histological pathological grade, Large Intestine ([1]; 500 mg/kg per os, mouse 7689): 0 | Histological pathological grade, Large Intestine ([1]; 500 mg/kg per os, mouse 7690, finding considered accidental, most probably not related to the tested compound): 2 | Histological pathological grade, Large Intestine ([1]; 500 mg/kg per os, mouse 7691): 0 | Histological pathological grade, Large Intestine ([1]; 500 mg/kg per os, mouse 7692): 0 | Short-term adverse pathological effects on major organs ([1]; i.v. or per o.s., 500 mg/kg): without short-term adverse pathological effects | Targeting of leukocyte tyrosine protein kinases [2]: did not target

Source: paper PMC8717366, “Synthesis and Pharmacological Characterization of Visabron, a Backbone Cyclic Peptide Dual Antagonist of α4β1 (VLA-4)/α9β1 Integrin for Therapy of Multiple Sclerosis” (JACS Au, 2021)
